We go through 13 compounds from patent US11370773B1, “Inhibiting human integrin (alpha-4) (beta-7)” (Morphic Therapeutic, Inc., priority 2019, dated 2022).

pIC50: −log10 of the molar value.

This assay addresses T1, integrin α4β7 (Homo sapiens, UniProt P13612+P26010).
T1 sequence (P13612 34-977 limits assumed): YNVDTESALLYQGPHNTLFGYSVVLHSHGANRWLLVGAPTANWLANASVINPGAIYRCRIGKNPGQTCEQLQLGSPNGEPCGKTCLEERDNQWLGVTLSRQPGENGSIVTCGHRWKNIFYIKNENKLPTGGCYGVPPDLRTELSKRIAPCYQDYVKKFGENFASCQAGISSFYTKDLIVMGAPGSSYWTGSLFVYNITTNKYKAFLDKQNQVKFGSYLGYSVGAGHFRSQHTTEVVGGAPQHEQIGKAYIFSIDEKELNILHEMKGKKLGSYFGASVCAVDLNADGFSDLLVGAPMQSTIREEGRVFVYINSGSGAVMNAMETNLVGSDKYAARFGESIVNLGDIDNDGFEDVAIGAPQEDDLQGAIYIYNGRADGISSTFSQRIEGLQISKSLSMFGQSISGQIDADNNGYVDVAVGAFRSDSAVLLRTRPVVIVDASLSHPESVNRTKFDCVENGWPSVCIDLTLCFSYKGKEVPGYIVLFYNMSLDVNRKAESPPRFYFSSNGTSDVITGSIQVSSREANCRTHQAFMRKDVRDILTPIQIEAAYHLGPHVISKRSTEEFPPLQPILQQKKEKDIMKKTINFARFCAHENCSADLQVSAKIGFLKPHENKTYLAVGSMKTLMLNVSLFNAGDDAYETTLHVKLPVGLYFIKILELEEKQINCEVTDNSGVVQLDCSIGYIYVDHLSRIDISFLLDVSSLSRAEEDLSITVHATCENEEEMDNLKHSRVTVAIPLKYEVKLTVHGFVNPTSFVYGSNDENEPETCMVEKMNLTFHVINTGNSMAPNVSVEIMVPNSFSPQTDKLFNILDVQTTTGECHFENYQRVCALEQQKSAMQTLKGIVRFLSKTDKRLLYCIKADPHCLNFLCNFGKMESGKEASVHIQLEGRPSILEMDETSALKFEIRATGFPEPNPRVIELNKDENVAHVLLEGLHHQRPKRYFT
T1 sequence (P26010 20-723 limits assumed): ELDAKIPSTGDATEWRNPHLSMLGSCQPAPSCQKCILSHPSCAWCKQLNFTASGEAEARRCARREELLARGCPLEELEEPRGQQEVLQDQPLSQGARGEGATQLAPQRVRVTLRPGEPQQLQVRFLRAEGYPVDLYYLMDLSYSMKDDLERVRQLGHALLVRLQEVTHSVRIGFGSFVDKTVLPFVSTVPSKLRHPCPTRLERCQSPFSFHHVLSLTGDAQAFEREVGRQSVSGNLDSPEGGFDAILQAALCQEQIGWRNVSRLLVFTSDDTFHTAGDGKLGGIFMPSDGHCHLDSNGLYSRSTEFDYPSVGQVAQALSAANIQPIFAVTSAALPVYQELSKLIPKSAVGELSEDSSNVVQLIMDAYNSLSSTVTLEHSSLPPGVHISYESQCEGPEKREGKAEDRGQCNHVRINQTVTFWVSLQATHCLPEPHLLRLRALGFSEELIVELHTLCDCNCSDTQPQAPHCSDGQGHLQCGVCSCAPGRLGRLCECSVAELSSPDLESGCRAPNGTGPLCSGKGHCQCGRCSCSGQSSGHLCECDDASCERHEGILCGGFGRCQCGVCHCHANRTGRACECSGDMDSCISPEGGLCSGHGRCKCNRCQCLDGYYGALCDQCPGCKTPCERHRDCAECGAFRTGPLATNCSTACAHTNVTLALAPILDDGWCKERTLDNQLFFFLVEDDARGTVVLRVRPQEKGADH
Put plainly: Fluorescence Polarization (FP) assay for α4β7 binding, competition with fluorescein-labeled peptide. The note with it: 6.5 nM integrin α4β7, 3 nM fluorescein-labeled peptide, 2 mM MnCl2; read-out: FP Assay (Example 5) IC50. The method, then: Three in vitro assays were used to examine the α4β7 mechanistic process used by cells: 1) ligand:receptor affinity, 2) the avidity of those interactions on a cell's surface, and 3) how those interactions fare under an imposing force. In Example 5, a Fluorescence Polarization (FP) assay is used to measure compound activity through binding competition with the fluorescein-labeled peptide. In Example 6, the potency of compounds against α4β7 is measured in the cell-based ligand binding assay (LBA), using RPMI 8866 cells incubated with the compound samples in competition with soluble MAdCAM-1 ligand. In Example 7, activity of compounds is evaluated in a cell adhesion assay that mechanistically tests what occurs in vivo when trafficking cells utilize α4β7 to adhere to MAdCAM-1 expressing HEVs of the gut during the extravasation process. In the cell adhesion assay of Example 7, a MAdCAM1-(Fc) is coated on plastic, and α4β7 expressing cells (RPMI-8866) are allowed to adhere to the coated surface in the presence of the test compounds. Next, the force of washing with buffer is applied to cells thereby testing the strength of that adhesion. Unattached cells are removed and the remaining adherent cells are quantified.
Fluorescence Polarization (FP) assays were used to measure compound activity through binding competition with the fluorescein-labeled peptide […]{Lys(FITC)}. In the assay, 6.5 nM of integrin α4β7 was incubated with the test compound in 2 mM manganese chloride, 0.1 mM calcium chloride, 20 mM HEPES buffer at pH 7.3, 150 mM sodium chloride, 0.01% Triton X-100, 2% DMSO, and 3 nM of the fluorescein-labeled peptide. Running the assays in 384-well plates, the integrin protein was pre-incubated with the test compounds for 15 minutes at 22° C. before the fluorescein-labeled peptide was added. After the fluorescein-labeled peptide was added, the assay was incubated at 22° C. for 1 hour and fluorescence polarization was measured. IC50 values were determined by non-linear regression, four-parameter curve fitting.
On the technique in general: Fluorescence polarisation rises when a labelled molecule tumbles more slowly, as on binding a larger partner.
For `Cc1cc(F)c(C)c(C)c1-c1cc(C(F)(F)F)c(F)c([C@H](CC(=O)O)NC(=O)[C@H](CC(C)C)n2cc(CCN3CCC3)c(C(F)(F)F)cc2=O)c1F` [KT-P2, (3S)-3-(2-(5-(2-(azetidin-1-yl)ethyl)-2-oxo-4-(trifluoromethyl)pyridin-1(2H)-yl)-4-methylpentanamido)-3-(2,4,4′-trifluoro-2′,3′,6′-trimethyl-5-(trifluoromethyl)-[1,1′-biphenyl]-3-yl)propanoic Acid], the pIC50 was ≥ 8.00.
On to `Cc1cc(-c2c(C)cc(F)cc2C)cc([C@H](CC(=O)O)NC(=O)[C@H](CC(C)C)n2cc(CCN(C)C)cc(C(F)F)c2=O)c1F` [I-P2, (3S)-3-(4,4′-difluoro-2′,5,6′-trimethyl-[1,1′-biphenyl]-3-yl)-3-(2-(3-(difluoromethyl)-5-(2-(dimethylamino)ethyl)-2-oxopyridin-1(2H)-yl)-4-methylpentanamido)propanoic Acid], for which the negative-log IC50 (pIC50) was ≥ 8.00.
To `Cc1cc(C)c(-c2cc(C)c(F)c([C@H](CC(=O)O)NC(=O)[C@H](CC(C)C)n3cc(CCCN(C)C)c(C(F)(F)F)cc3=O)c2F)c(C)c1F` [IW-P2, (3S)-3-(2-(5-(3-(dimethylamino)propyl)-2-oxo-4-(trifluoromethyl)pyridin-1(2H)-yl)-4-methylpentanamido)-3-(2,3′,4-trifluoro-2′,4′,5,6′-tetramethyl-[1,1′-biphenyl]-3-yl)propanoic Acid] belongs ≥ 8.00.
To `Cc1cc(C)c(-c2cc(C(F)(F)F)c(F)c([C@H](CC(=O)O)NC(=O)[C@H](CC(C)C)n3cc(CCN4CCC4)c(C(F)(F)F)cc3=O)c2F)c(C)c1` [IG-P2, (3S)-3-(2-(5-(2-(azetidin-1-yl)ethyl)-2-oxo-4-(trifluoromethyl)pyridin-1(2H)-yl)-4-methylpentanamido)-3-(2,4-difluoro-2′,4′,6′-trimethyl-5-(trifluoromethyl)biphenyl-3-yl)propanoic Acid] belongs ≥ 8.00.
The figure for `Cc1ccn([C@@H](CC(C)C)C(=O)N[C@H](CC(=O)O)c2cncc(-c3c(C)cccc3C)c2)c(=O)c1` [Example C-28, reference compound] is 6.30 to 8.00; for `Cc1cc(C2CC2)cc(C)c1-c1cc(C(F)(F)F)c(F)c([C@H](CC(=O)O)NC(=O)[C@H](CC(C)C)n2cc(CCCN(C)C)c(C(F)(F)F)cc2=O)c1F` [HU-P2, (3S)-3-(4′-cyclopropyl-2,4-difluoro-2′,6′-dimethyl-5-(trifluoromethyl)-[1,1′-biphenyl]-3-yl)-3-(2-(5-(3-(dimethylamino)propyl)-2-oxo-4-(trifluoromethyl)pyridin-1(2H)-yl)-4-methylpentanamido)propanoic Acid] it is ≥ 8.00.
In the case of `Cc1cc(C)c(-c2cc(C(F)(F)F)c(F)c([C@H](CC(=O)O)NC(=O)[C@H](CC(C)C)n3cc(CCN(C)C)c(C(F)(F)F)cc3=O)c2F)c(C)c1` [IF-P2, (3S)-3-(2,4-difluoro-2′,4′,6′-trimethyl-5-(trifluoromethyl)-[1,1′-biphenyl]-3-yl)-3-(2-(5-(2-(dimethylamino)ethyl)-2-oxo-4-(trifluoromethyl)pyridin-1(2H)-yl)-4-methylpentanamido)propanoic Acid], the negative-log IC50 (pIC50) was ≥ 8.00.
The figure for `Cc1cc(C)c(-c2cc(C(F)(F)F)c(F)c([C@H](CC(=O)O)NC(=O)[C@H](CC(C)C)n3cc(CCCN(C)C)c(C(F)(F)F)cc3=O)c2F)c(C)c1` [HZ-P2, (3S)-3-(2,4-difluoro-2′,4′,6′-trimethyl-5-(trifluoromethyl)biphenyl-3-yl)-3-(2-(5-(3-(dimethylamino)propyl)-2-oxo-4-(trifluoromethyl)pyridin-1(2H)-yl)-4-methylpentanamido)propanoic Acid] is ≥ 8.00.
With `Cc1ccc(F)c(C)c1-c1cc(C2CC2)c(F)c([C@H](CC(=O)O)NC(=O)[C@H](CC(C)C)n2cc(CCN3CCC3)c(C(F)(F)F)cc2=O)c1F` [HH-P2, (3S)-3-(2-(5-(2-(azetidin-1-yl)ethyl)-2-oxo-4-(trifluoromethyl)pyridin-1(2H)-yl)-4-methylpentanamido)-3-(5-cyclopropyl-2,3′,4-trifluoro-2′,6′-dimethyl-[1,1′-biphenyl]-3-yl)propanoic Acid], the pIC50 is ≥ 8.00.
On to `Cc1cc(C)c(-c2cc(C3CC3)c(F)c([C@H](CC(=O)O)NC(=O)[C@H](CC(C)C)n3cc(CCN4CCC4)c(C(F)(F)F)cc3=O)c2F)c(C)c1` [HM-P2, (3S)-3-(2-(5-(2-(azetidin-1-yl)ethyl)-2-oxo-4-(trifluoromethyl)pyridin-1(2H)-yl)-4-methylpentanamido)-3-(5-cyclopropyl-2,4-difluoro-2′,4′,6′-trimethylbiphenyl-3-yl)propanoic Acid], for which the negative-log IC50 (pIC50) was ≥ 8.00.
Turning to `Cc1cc(-c2c(C)ccc(F)c2C)cc([C@H](CC(=O)O)NC(=O)C(CC(C)C)n2cc(CCN3CCC3)c(C(F)(F)F)cc2=O)c1F` (single isomer, unassigned) [AF-P2], the pIC50 was ≥ 8.00.
To `Cc1ccn([C@@H](NC(C)C)C(=O)N[C@@H](CC(=O)O)c2cncc(-c3c(C)cccc3C)c2)c(=O)c1` [Example C-7, reference compound] belongs ≥ 8.00; to `Cc1cc(F)cc(C)c1-c1cc(C(F)(F)F)c(F)c([C@H](CC(=O)O)NC(=O)[C@H](CC(C)C)n2cc(CCCN(C)C)c(C(F)(F)F)cc2=O)c1F` [HW-P2, (3S)-3-(2-(5-(3-(dimethylamino)propyl)-2-oxo-4-(trifluoromethyl)pyridin-1(2H)-yl)-4-methylpentanamido)-3-(2,4,4′-trifluoro-2′,6′-dimethyl-5-(trifluoromethyl)-[1,1′-biphenyl]-3-yl)propanoic Acid], ≥ 8.00.

By pIC50 is commonly meant the negative decadic logarithm of the IC50, by convention in mol/L.
